From US20220211687A1, “USE OF ARIMOCLOMOL IN THE TREATMENT OF NIEMANN PICK DISEASE” (Orphazyme A/S, priority 2020, published 2022)

Columns and labels:
[1] = tested on: Niemann-Pick disease type C (NPC); test: 5-domain NPCCSS score, 12-month double-blind placebo-controlled phase 2/3 trial; assay type: in vivo, human; settings: for Responders on 5-domain NPCCSS score at 12 months, %: responder = stable or improved
Experimental: Patients enrolled in the trial were stratified by use of miglustat at baseline. Patients in both strata were randomized 2:1 to receive arimoclomol or placebo.
(§1) Routine clinical care was maintained throughout the trial (including administration of miglustat). Each participant was randomized to receive arimoclomol or placebo three times daily. Arimoclomol was administered orally or by feeding tube at 93-372 mg/day based on the patient's body weight up to the estimated equivalence of 372 mg/day for adults (body weight >55 kg) or of 124 mg three times a day.
(§2) During the 12-month treatment phase, efficacy assessments for the primary endpoint, the 5-domain NPCCSS score, and for the non-disease specific Clinical Global Impression—Improvement scale (CGI-I) scores were performed at baseline and after 3, 6, 9, and 12 months of treatment; all other efficacy and biomarker assessments were performed at baseline and after 6 and 12 months of treatment.
Primary endpoint: The primary endpoint was change from baseline in NPC severity at 12 months as assessed by the 5-domain NPCCSS score, an abbreviated assessment tool originating from the 17 domain NPCCSS score developed by Yanjanin et al., as described herein. The fully validated 5-domain NPCCSS score comprises the domains determined to be most clinically relevant to patients, caregivers, and clinicians: ambulation, cognition, fine motor skills, speech, and swallowing. The total aggregated 5-domain NPCCSS score ranges from 0 to 25, with a higher score indicating more severe clinical impairment.
Subgroup analyses of primary endpoint: NPC is a heterogeneous disease, and patients aged 2 to 18 years present with a large spectrum of disease presentations. The group of children <4 years old includes patients with mild manifestations and patients with aggressive, early fatal disease. As this group is particularly heterogeneous, a subgroup of patients >4 years of age was predefined with the population of study participants.
In the EU, miglustat is indicated for the treatment of progressive neurological manifestations in patients with NPC. However, not all patients are candidates for miglustat treatment, and it is recommended that the benefit of treatment should be evaluated on a regular basis (e.g., every six months). An analysis of the subpopulation of patients receiving miglustat was prespecified to elucidate the effect of arimoclomol in patients on background miglustat treatment. Overall, the subgroups of patients ≥4 years of age, and patients on miglustat treatment, were expected to be more homogeneous with respect to baseline demographics and disease characteristics and therefore more suitable for comparison.
In the first post hoc analysis, subjects with double functional null mutations in NPC1 (NPC1 genotype of Functional Null/Functional Null) were excluded.

[2] = Safety evaluation (TEAEs), 12-month double-blind phase 2/3 trial; assay type: in vivo, human
Experimental: as §1

[3] = tested on: Niemann-Pick disease type C (NPC); test: NPC clinical database (NPC-cdb) score, phase 2/3 trial; assay type: in vivo, human; settings: for NPC-cdb score change from baseline to 12 months, Arimoclomol vs placebo: Difference: p=0.3785
Description: Additional secondary endpoints included: change from baseline in scale for assessment and rating of ataxia (SARA) score at 6 and 12 months; change in the nine-hole peg test (9-HPT) result at 6 and 12 months; change in health-related quality of life (HRQoL) as measured by the 5-dimension 3-level EuroQol questionnaire, youth version (EQ-5D-3L Y proxy) at 6 and 12 months; change in individual 5-domain NPCCSS score at month 12; and NPC clinical database (NPC-cdb) score changes from baseline at trial time points. The NPC-cdb score aims to reflect clinical status; an increase in score indicates a reduction in the patient's abilities.

[4] = evidenced by presence in cerebrospinal fluid of treated ALS patients; cited from earlier work
[5] = tested on: Niemann-Pick disease type C (NPC); test: 5-domain NPCCSS score, open-label extension (OLE) of phase 2/3 trial; assay type: in vivo, human
[6] = tested on: Niemann-Pick disease type C (NPC); test: 17-domain (full) NPCCSS score excluding hearing domains, phase 2/3 trial; assay type: in vivo, human; settings: for Full NPCCSS score (excluding hearing domains), LS mean change from baseline, Arimoclomol vs placebo: Difference: p=0.5726
Description: As would be appreciated by the skilled artisan, progression of NPC in a subject can be tracked by a clinician using the NPC composite clinical severity scale (hereafter “NPCCSS”; see Yanjanin NM et al. Am J Med Genet B Neuropsychiatr Genet, 2010; 153B (1): 132-140, incorporated herein by reference in its entirety). A full “17-domain NPCCSS score” incorporates clinical signs and symptoms in nine major (ambulation, cognition, eye movement, fine motor, hearing, memory, seizures, speech, swallowing) and eight minor (auditory brainstem response, behavior, gelastic cataplexy, hyperreflexia, incontinence, narcolepsy, psychiatric, respiratory problems) domains to determine a score which describes the severity of the subject's NPC progression (a higher score, the more progressed/severe the disease is). An abridged “5-domain NPCCSS score” is also used by clinicians, and incorporates clinical signs and symptoms from the major domains of ambulation, cognition, fine motor, speech and swallowing (see Cortina-Borj a M et al. OrphanetJRare Dis, 2018; 13 (1): 143; 3, incorporated herein by reference in its entirety).
as §1

[7] = tested on: Niemann-Pick disease type C (NPC); test: Nine-hole peg test (9-HPT), phase 2/3 trial; assay type: in vivo, human; settings: for 9-HPT time, change from baseline to 12 months, LS mean: arimoclomol group
Description: 9-HPT: The 9-HPT is a direct and simple measurement of fine motor coordination, hand/eye coordination, and the ability to follow a simple direction, measured in seconds for each hand. The test is not applicable for children under 4 years of age. See Poole J L, Burtner PA, Torres TA, et al. Measuring dexterity in children using the Nine-hole Peg Test. J Hand Ther. 2005; 18:348-51.

[8] = tested on: Niemann-Pick disease type C (NPC); test: Clinical Global Impression-Improvement scale (CGI-I) responder analysis, phase 2/3 trial; assay type: in vivo, human
Experimental: as §2
CGI-I: the CGI-I was originally developed as a research rating tool to assess psychiatric diseases (see Busner J, Targum SD. The clinical global impressions scale: applying a research tool in clinical practice. Psychiatry (Edgmont). 2007;4:28-37, incorporated herein by reference in its entirety). It provides the clinician's impression of improvement (or worsening) of a person's condition at the current visit compared with baseline on a 7-point scale ranging from 1 (very much improved) to 7 (very much worse). In the present trial, CGI-I was performed after clinical examination and patient interviews; the same investigator was instructed to perform CGI-I assessments throughout the trial for a given patient.

[9] = Safety in open-label extension (OLE) of phase 2/3 trial
Description: All OLE patients received arimoclomol; routine clinical care, including miglustat, was maintained.

[10] = tested on: Niemann-Pick disease type C (NPC); test: EQ-5D-3L Y proxy health-related quality of life, phase 2/3 trial; assay type: in vivo, human
Experimental: EQ-5D-3L Y proxy: The HRQoL of individuals in the trial was measured using the child-friendly version of the EQ-5D-3L Y proxy questionnaire. The questionnaire was completed by the patient's caregiver as a proxy for the individual.

[11] = tested on: Niemann-Pick disease type C (NPC)
[12] = tested on: Niemann—Pick disease type C (NPC); settings: background statement; cited from earlier work

## [O-][n+]1cccc(/C(Cl)=N/OC[C@H](O)CN2CCCCC2)c1 [Arimoclomol, N-[(2R)-2-hydroxy-3-piperidin-1-ylpropoxy]-1-oxidopyridin-1-ium-3-carboximidoyl chloride]
[1]; individuals aged ≥4 years, arimoclomol group n=30 (24 at 12 months)
  Change in 5-domain NPCCSS score from baseline at 12 months, mean change: 0.44
[1]; individuals aged ≥4 years, p=0.0190
  Change in 5-domain NPCCSS score from baseline at 12 months, Arimoclomol vs placebo: Difference: −1.75
[1]; individuals aged ≥4 years, vs placebo
  Relative reduction in annual disease progression: 80%
[1]; individuals not receiving miglustat, arimoclomol group n=8 (3 at 12 months)
  Change in 5-domain NPCCSS score from baseline at 12 months, mean change: 4.2
[1]; individuals not receiving miglustat, p=0.2835
  Change in 5-domain NPCCSS score from baseline at 12 months, Arimoclomol vs placebo: Difference: 2.21
[1]; individuals receiving miglustat, arimoclomol group n=26 (22 at 12 months)
  Change in 5-domain NPCCSS score from baseline at 12 months, mean change: −0.01
[1]; individuals receiving miglustat, p=0.0074
  Change in 5-domain NPCCSS score from baseline at 12 months, Arimoclomol vs placebo: Difference: −2.01
[1]; individuals receiving miglustat, vs placebo
  Relative reduction in annual disease progression: 101%
[1]; overall population, 5-domain NPCCSS, vs placebo
  Relative reduction in annual disease progression: 63%
[1]; overall population, arimoclomol group n=34 (27 at 12 months), 93-372 mg/day by body weight, three times daily
  Change in 5-domain NPCCSS score from baseline at 12 months, mean change: 0.80
[1]; overall population, p=0.0537
  Change in 5-domain NPCCSS score from baseline at 12 months, Arimoclomol vs placebo: Difference: −1.34
[1]; p=0.5456
  Responders on 5-domain NPCCSS score at 12 months, Arimoclomol vs placebo: Difference: 12.5%
[1]; p=1.0000
  Proportion worsening on 5-domain NPCCSS score at 12 months, Arimoclomol vs placebo: Difference: 0.37%
[1]; patients >4 years old (n=44) and patients concomitantly receiving miglustat (n=39), p<0.05
  Progression of NPC in prespecified subgroups (MMRM on 5-domain NPCCSS): slowed progression of NPC
[1]; post hoc, baseline ASIS within 0.5 and 2
  Relative reduction in annual disease progression: 93%
[1]; post hoc, baseline ASIS within 0.5 and 2 (n=21), p=0.0536
  Change in 5-domain NPCCSS score, Arimoclomol vs placebo: Difference: −2.39
[1]; post hoc, baseline ASIS within 0.5 and 2, arimoclomol n=13
  Change in 5-domain NPCCSS score from baseline at 12 months, mean change: 0.19
[1]; post hoc, excluding individuals with double functional null mutations
  Relative reduction in annual disease progression: 77%
[1]; post hoc, excluding individuals with double functional null mutations, arimoclomol n=31
  Change in 5-domain NPCCSS score from baseline at 12 months, mean change: 0.47
[1]; post hoc, excluding individuals with double functional null mutations, p=0.0242
  Change in 5-domain NPCCSS score, Arimoclomol vs placebo: Difference: −1.56
[1]; arimoclomol group n=34
  Responders on 5-domain NPCCSS score at 12 months, %: (50.0) %
[1]; arimoclomol group n=34, listed as arimoclomol
  Responders on 5-domain NPCCSS score at 12 months, %: 50.0%
[1]; time until worsened by 2 points vs baseline, arimoclomol group
  Time to worsening on 5-domain NPCCSS score: 3.68 months
[1]; worsening by 2 points vs baseline, arimoclomol group n=34
  Proportion worsening on 5-domain NPCCSS score at 12 months, %: (44.1) %
[2]; 12-month placebo-controlled trial
  Tolerability: well tolerated
[2]; arimoclomol group
  Number of patients with increase in serum creatinine level over 1.5 times baseline: Six
  Number of patients with serum creatinine level over twice baseline: two
[2]; arimoclomol group 5/34
  Patients with serious TEAEs: 14.7%
[2]; arimoclomol group 8/34
  Patients with vomiting (most common TEAE): 23.5%
[2]; double-blind phase
  Upper respiratory tract infection and decreased weight, frequency versus placebo: occurred more frequently
[2]; double-blind phase, 12 months, arimoclomol group 30/34
  Patients with TEAEs (adverse event incidence): 88.2%
[2]; during the trial
  Changes in vital signs, electrocardiograms, or other laboratory values: no significant changes
[2]; three patients, four TEAEs (urticaria x2, angioedema, increased blood creatinine)
  Patients with TEAEs that led to trial drug discontinuation: 8.8%
[3]; arimoclomol group
  NPC-cdb score change from baseline to 12 months, LS mean: 1.85
[3]
  NPC-cdb score change from baseline to 12 months, Arimoclomol vs placebo: Difference: −3.03
[3]; listed as arimoclomol
  NPC-cdb score change from baseline to 12 months, Arimoclomol vs placebo: Difference: numerically in favor of arimoclomol
[4]
  Blood-brain barrier penetration: crosses the blood—brain barrier
[5]; 12-month OLE after 12-month double-blind part
  Benefit over a two-year period: sustained benefit
[5]; OLE, 36 months
  Treatment effect over 36 months: sustained treatment effect
[5]; arimoclomol-arimoclomol group, 3 years' arimoclomol treatment (DB and OLE)
  5D-NPCCSS mean (SD) change from baseline at M36: 3.5 (5.6)
[5]; patients who received arimoclomol for a total of two years, mainly due to patients under 4 years
  Progression in OLE compared to placebo-controlled part: greater progression
[5]; patients who switched from placebo to arimoclomol, 12-month open label extension
  5-domain NPCCSS progression: 0.23
[5]; placebo-arimoclomol group, 2 years' arimoclomol treatment (OLE only)
  5D-NPCCSS mean (SD) change from baseline at M36: 0.9 (2.1)
[5]; predefined subgroups: patients 4 years and older, patients receiving miglustat
  Early treatment initiation versus delayed start of treatment: greater benefit than delayed start of treatment
[5]; subgroups: aged >4 years, treated with miglustat, without double functional null mutations
  Benefit of sustained treatment across subgroups at M36: consistent benefit
[6]; 12 months, arimoclomol group
  Full NPCCSS score (excluding hearing domains), LS mean change from baseline: 1.24
[6]; 12 months
  Full NPCCSS score (excluding hearing domains), LS mean change from baseline, Arimoclomol vs placebo: Difference: −1.56
[6]; 12 months, listed as arimoclomol
  Full NPCCSS score (excluding hearing domains), LS mean change from baseline, Arimoclomol vs placebo: Difference: numerically in favor of arimoclomol
[6]; arimoclomol group n=25
  Full NPCCSS score (excluding hearing domains) at 12 months, Mean: 1.2
  Full NPCCSS score (excluding hearing domains) at 12 months, Median: 1.0
[7]; Dominant hand
  9-HPT time, change from baseline to 12 months, LS mean: -3.29 s
[7]; Dominant hand, p=0.7283
  9-HPT time, change from baseline to 12 months, Arimoclomol vs placebo: Difference: 3.20 s
[7]; Non-dominant hand
  9-HPT time, change from baseline to 12 months, LS mean: 11.68 s
[7]; Non-dominant hand, p=0.7708
  9-HPT time, change from baseline to 12 months, Arimoclomol vs placebo: Difference: -5.91 s
[8]; p=1.0000
  Responders on CGI-I at 12 months, Arimoclomol vs placebo: Difference: 2.6%
[8]; responder = stable or improved, arimoclomol group
  Responders on CGI-I at 12 months, %: (58.8) %
[9]; M12-24
  Adverse events incidence: 87.8%
[9]; M24-36
  Adverse events incidence: 85.3%
[9]; over 24 months
  Safety and tolerability: safe and well-tolerated
[9]; over 36 months
  Tolerability: well tolerated
[10]; arimoclomol group
  EQ-5D-3L Y proxy, Improved at 12 months, %: (25.9) %
  EQ-5D-3L Y proxy, Worsened at 12 months, %: (44.4) %
[10]; p=0.1804
  EQ-5D-3L Y proxy, Worsened at 12 months, Arimoclomol vs placebo: Difference: 24.4%
[10]; p=0.4880
  EQ-5D-3L Y proxy, Improved at 12 months, Arimoclomol vs placebo: Difference: −14.1%
[11]; arimoclomol group
  SARA score change from baseline to 12 months, LS mean: 1.06
[11]; p=0.7899
  SARA score change from baseline to 12 months, Arimoclomol vs placebo: Difference: 0.28

## CCCCN1C[C@H](O)[C@@H](O)[C@H](O)[C@H]1CO [miglustat, (2R,3R,4R,5 S)-1-butyl-2-(hydroxymethyl)piperidine-3 ,4,5-triol]
[12]
  Effect on slowing NPC disease progression: only a modest effect on slowing disease progression
